Like-named read-outs stand apart in the source and are kept apart here. Marks after values point to notes of the source that are not given here.
How the values were obtained:
[1] = tested on: human gastric cancer SGC-7901 tumors; assay: SGC-7901 tumors in nude mice; assay type: in vivo
Source text: (§1) was higher than that of vandetanib .
as §1
Table S16. Efficacy of HA121-28 on human gastric cancer SGC-7901 tumors

[2] = tested on: human esophageal cancer KYSE-150 xenografts; assay: KYSE-150 xenografts in nude mice; assay type: in vivo
[3] = tested on: human esophageal cancer ECA-109 tumors; assay: ECA-109 tumors in nude mice; assay type: in vivo; settings: 8 mg/kg
[4] = tested on: RET fusion-positive NSCLC; settings: cited from earlier work
TT cells = assay: Tumor cell proliferation in vitro; assay type: cell-based, human; settings: Homo sapiens
HUVEC cells = assay: cells; settings: Homo sapiens
A375 cells = assay: Tumor cell proliferation in vitro; assay type: cell-based, human; settings: Homo sapiens, A-375
EGFR and ERK activation = assay: EGF-stimulated activation of EGFR and ERK in A431 cells; assay type: cell-based, human; settings: 10 ng/mL EGF, concentration-dependent
8305C cells = assay: Tumor cell proliferation in vitro; assay type: cell-based; settings: Homo sapiens
VEGFR and ERK activation = assay: VEGF165-stimulated activation of VEGFR and ERK in HUVEC cells; assay type: cell-based, human; settings: 50 ng/mL VEGF165, concentration-dependent
A431 cells = assay: Tumor cell proliferation in vitro; assay type: cell-based, human; settings: Homo sapiens, A-431, read-out: IC50, proliferation
HCT116 cells = assay: Tumor cell proliferation in vitro; assay type: cell-based; settings: Homo sapiens, HCT-116
[5] = tested on: human melanoma A375 tumors; assay: A375 tumors in nude mice; assay type: in vivo
A498 cells = assay: Tumor cell proliferation in vitro; assay type: cell-based; settings: Homo sapiens
KYSE-150 cells = assay: Tumor cell proliferation in vitro; assay type: cell-based, human; settings: Homo sapiens, KYSE-150; read-out: IC50, proliferation
[6] = ref Phase I clinical study results of vandetanib; cited from earlier work
CFPAC-1 cells = assay: Tumor cell proliferation in vitro; assay type: cell-based; settings: Homo sapiens
SGC-7901 cells = assay: Tumor cell proliferation in vitro; assay type: cell-based, human; settings: Homo sapiens, SGC-7901; SGC7901
BEL-7402 cells = assay: Tumor cell proliferation in vitro; assay type: cell-based; settings: Homo sapiens, Bel-7402; read-out: IC50, proliferation
[7] = tested on: human thyroid cancer TT tumors; assay: TT tumors in nude mice; assay type: in vivo; settings: TT tumors
Source text: as §1, §1
Table S15. Efficacy of HA121-28 on human thyroid cancer TT tumors

N#CC1(c2ccc(NC(=O)c3cccnc3NCc3ccncc3)cc2)CCCC1 [Apatinib]
RTV ±SD ([1]; 200 mg/kg): 4.2±1.2
T/C ([1]; 200 mg/kg): 26.5%
Terminal Tumor Volume ([1]; 200 mg/kg): 793.5±324.4** mm^3

N.N.[Cl][Pt][Cl] [Cisplatin]
RTV X±SD ([2]; 10 mg/kg): 5.0±3.9
T/C ([2]; 10 mg/kg): 32.6%
Terminal Tumor Volume ([2]; 10 mg/kg): 694.4±237.4** mm^3
RTV ±SD [3]: 6.4±2.9
T/C [3]: 62.0%
Terminal Tumor Volume [3]: 1,580.0±952.4 mm^3

CO[C@]1(C(=O)N[C@@H](C)c2ccc(-n3cc(F)cn3)nc2)CC[C@H](c2nc(C)cc(Nc3cc(C)[nH]n3)n2)CC1 [Pralsetinib]
ORR ([4]; platinum-pretreated patients ref 38): 61%

COc1ccc(CN2C3CC2CN(c2ccc(-c4cc(OCC(C)(C)O)cn5ncc(C#N)c45)cn2)C3)cn1 [Selpercatinib]
ORR ([4]; platinum-pretreated patients ref 37): 61%

COc1cc2c(Nc3ccc(Br)cc3F)ncnc2cc1OCC1CCN(C)CC1 [vandetanib, reference compound]
IC50 (TT cells): 3570 ± 38.2 nM
IC50 (HUVEC cells): 117 nM
IC50 (A375 cells): 2190 ± 318 nM
activation of EGFR and downstream ERK (EGFR and ERK activation): significantly inhibited
IC50 (8305C cells): 1250 ± 96.3 nM
activation of VEGFR and downstream ERK (VEGFR and ERK activation): significantly inhibited
IC50 (A431 cells): 1140 ± 255 nM
IC50 (HCT116 cells): 3190 ± 688 nM
RTV ±SD ([5]; 12.5 mg/kg): 22.1±17.2
T/C ([5]; 12.5 mg/kg): 108.1%
Terminal Tumor Volume ([5]; 12.5 mg/kg): 2824.1±1001.2 mm^3
RTV ±SD ([5]; 25 mg/kg): 11.4±4.7
T/C ([5]; 25 mg/kg): 55.7%
Terminal Tumor Volume ([5]; 25 mg/kg): 1719.9±822.4 mm^3
RTV ±SD ([5]; 50 mg/kg): 7.2±1.4
T/C ([5]; 50 mg/kg): 35.0%
RTV X±SD ([2]; 12.5 mg/kg): 5.2±1.9
T/C ([2]; 12.5 mg/kg): 34.2%
Terminal Tumor Volume ([2]; 12.5 mg/kg): 847.0±247.2** mm^3
RTV X±SD ([2]; 25 mg/kg): 2.6±0.7
T/C ([2]; 25 mg/kg): 16.8%
Terminal Tumor Volume ([2]; 25 mg/kg): 489.8±273.9** mm^3
RTV X±SD ([2]; 50 mg/kg): 1.3±0.6
T/C ([2]; 50 mg/kg): 8.4%
Terminal Tumor Volume ([2]; 50 mg/kg): 273.9±189.8** mm^3
IC50 (A498 cells): 1030 ± 42.7 nM
IC50 (KYSE-150 cells): 1500 ± 135 nM
RTV ±SD ([1]; 50 mg/kg): 3.6±1.7
T/C ([1]; 50 mg/kg): 23.0%
Terminal Tumor Volume ([1]; 50 mg/kg): 690.9±259.8** mm^3
RTV ±SD ([1]; 75 mg/kg): 2.3±1.0
T/C ([1]; 75 mg/kg): 14.3%
Terminal Tumor Volume ([1]; 75 mg/kg): 486.9±221.2** mm^3
MTD [6]: 500 mg/day
IC50 (CFPAC-1 cells): 336 ± 10 nM
IC50 (SGC-7901 cells): 4370 ± 441 nM
IC50 (BEL-7402 cells): 15100 ± 1130 nM
RTV ±SD ([7]; 25 mg/kg): 2.1±1.0
T/C ([7]; 25 mg/kg): 34.1%
Terminal Tumor Volume ([7]; 25 mg/kg): 302.4±91.1** mm^3
RTV ±SD ([7]; 50 mg/kg): 1.0±0.4
T/C ([7]; 50 mg/kg): 17.0%
Terminal Tumor Volume ([7]; 50 mg/kg): 155.5±82.1** mm^3
RTV ±SD ([7]; 75 mg/kg): 0.5±0.2
T/C ([7]; 75 mg/kg): 8.9%
Terminal Tumor Volume ([7]; 75 mg/kg): 100.1±62.5** mm^3
